How the values were obtained:
[1] = biological target: T1, M4 mAChR (Homo sapiens, UniProt P08173); test: cAMP TR-FRET assay with forskolin, M4-overexpressing CHO-K1 cells; format: cell-based; conditions: cAMP assay
T1 construct: expressed in transfected cells; host or cells: CHO-K1
T1 sequence (P08173 1-479): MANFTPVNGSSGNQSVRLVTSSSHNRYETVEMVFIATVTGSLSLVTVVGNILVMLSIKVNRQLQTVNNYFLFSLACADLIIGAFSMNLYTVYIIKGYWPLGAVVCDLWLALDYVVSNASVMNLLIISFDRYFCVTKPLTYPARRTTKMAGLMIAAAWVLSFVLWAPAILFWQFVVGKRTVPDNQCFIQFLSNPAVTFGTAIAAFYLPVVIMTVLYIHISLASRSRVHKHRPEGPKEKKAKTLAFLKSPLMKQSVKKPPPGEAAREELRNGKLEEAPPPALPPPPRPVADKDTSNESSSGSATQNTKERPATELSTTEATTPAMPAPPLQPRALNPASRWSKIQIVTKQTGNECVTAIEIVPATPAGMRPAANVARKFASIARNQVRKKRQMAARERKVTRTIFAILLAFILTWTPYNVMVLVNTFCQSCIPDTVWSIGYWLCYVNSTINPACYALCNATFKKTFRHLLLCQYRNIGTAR
Procedure, shortened: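 CHO-K1 cells overexpressing the receptor were stimulated with forskolin to raise cAMP, so that Gi-mediated agonist decreases could be measured. cAMP was quantified by TR-FRET competition between cellular cAMP and labelled donor for anti-cAMP antibody, giving potency and efficacy.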

[2] = biological target: T2, M3 muscarinic acetylcholine receptor (mAChR) (Homo sapiens, UniProt P20309); test: FLIPR calcium assay (Fluo 8), M3-overexpressing CHO-K1 cells; format: cell-based; conditions: FLIPR
T2 construct: expressed in transfected cells; host or cells: CHO-K1
T2 sequence (P20309 whole entry): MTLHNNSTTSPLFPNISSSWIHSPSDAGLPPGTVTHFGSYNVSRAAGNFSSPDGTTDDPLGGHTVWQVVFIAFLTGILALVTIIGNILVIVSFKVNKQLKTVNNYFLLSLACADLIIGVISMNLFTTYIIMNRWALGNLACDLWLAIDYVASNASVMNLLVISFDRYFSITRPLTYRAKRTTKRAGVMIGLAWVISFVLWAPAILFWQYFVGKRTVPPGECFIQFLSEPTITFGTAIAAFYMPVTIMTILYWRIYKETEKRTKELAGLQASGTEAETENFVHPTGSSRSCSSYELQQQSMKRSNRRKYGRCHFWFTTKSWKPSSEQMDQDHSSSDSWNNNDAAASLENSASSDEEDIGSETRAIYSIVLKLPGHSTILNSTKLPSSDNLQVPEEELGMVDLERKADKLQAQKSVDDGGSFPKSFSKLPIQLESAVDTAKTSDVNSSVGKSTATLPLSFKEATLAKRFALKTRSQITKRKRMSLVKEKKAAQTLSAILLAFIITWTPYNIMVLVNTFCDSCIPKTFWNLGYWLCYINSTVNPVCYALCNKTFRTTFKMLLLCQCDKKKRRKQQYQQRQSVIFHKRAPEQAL
Procedure, shortened: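 CHO-K1 cells overexpressing each human receptor seeded at 15,000 per well, grown overnight at 37° C., 5% CO2, then loaded with Fluo-8 for 30 min. Compounds in HBSS added and calcium response read on FLIPR; EC50 and Emax calculated per subtype.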

Emax [1] [%] | EC50 [2] [µM] | SMILES
80 to 100 | > 10 | CCOC(=O)N1CC2(CC[C@@H](N3CCN(c4cc(Cl)cnc4-n4cc(C)nn4)CC3)C2)C1 [Compound A247]
80 to 100 | > 10 | CCOC(=O)N1CC2(CC[C@@H](N3CCN(c4cc(Cl)cnc4-c4nncs4)CC3)C2)C1 [Compound A249]
80 to 100 | > 10 | CCOC(=O)N1CC2(CC[C@@H](N3CCN(c4cc(F)cnc4-c4cnc(C(F)(F)F)cn4)CC3)C2)C1 [Compound A250]
80 to 100 | > 10 | CCOC(=O)N1CC2(CC[C@@H](N3CCN(c4cc(Cl)cnc4-c4ccc(C)nn4)CC3)C2)C1 [Compound A251]
80 to 100 | > 10 | CCOC(=O)N1CC2(CC[C@@H](N3CCN(c4cc(Cl)cnc4-c4ccc(F)cn4)CC3)C2)C1 [Compound A252]
80 to 100 | > 10 | CCOC(=O)N1CC2(CC[C@@H](N3CCN(c4cc(F)cnc4-c4cnc(C(F)F)cn4)CC3)C2)C1 [Compound A253]
80 to 100 | > 10 | CCOC(=O)N1CC2(CC[C@@H](N3CCN(c4cc(C)cnc4-c4cnccn4)CC3)C2)C1 [Compound A255]
80 to 100 | > 10 | CCOC(=O)N1CC2(CC[C@@H](N3CCN(c4cc(Cl)cnc4-c4cn(C)nn4)CC3)C2)C1 [Compound A256]
50 to 79.9 | > 10 | CCOC(=O)N1CC2(CC[C@@H](N3CCN(c4cc(Cl)cnc4-c4cnn(C(C)C)n4)CC3)C2)C1 [Compound A258]
80 to 100 | > 10 | CCOC(=O)N1CC2(CC[C@@H](N3CCN(c4cc(F)cnc4-c4ccc(Cl)cn4)CC3)C2)C1 [Compound A259]
19 to 49.9 | > 10 | CCOC(=O)N1CC2(CC[C@@H](N3CCN(c4cc(C#N)cnc4-c4cnccn4)CC3)C2)C1 [Compound A272]
80 to 100 | > 10 | CCOC(=O)N1CC2(CC[C@@H](N3CCN(c4cc(F)cnc4C4CCN(C)CC4)CC3)C2)C1 [Compound A273]
80 to 100 | > 10 | CCOC(=O)N1CC2(CC[C@H](N3CCN(c4cc(F)cnc4C4CCOCC4)CC3)C2)C1 [Compound A274]
80 to 100 | > 10 | CCOC(=O)N1CC2(CC[C@@H](N3CCN(c4cc(Cl)cnc4C4CC5(COC5)C4)CC3)C2)C1 [Compound A279]
80 to 100 | > 10 | CCOC(=O)N1CC2(CC[C@@H](N3CCN(c4cc(F)cnc4-c4ncccc4F)CC3)C2)C1 [Compound A283]
80 to 100 | > 10 | CCOC(=O)N1CC2(CC[C@@H](N3CCN(c4cc(F)cnc4-c4ccnc(F)n4)CC3)C2)C1 [Compound A284]
80 to 100 | > 10 | CCOC(=O)N1CC2(CC[C@@H](N3CCN(c4cc(F)cnc4-c4cnn(C(F)(F)F)c4)CC3)C2)C1 [Compound A285]
19 to 49.9 | > 10 | CCOC(=O)N1CC2(CC[C@@H](N3CCN(c4cc(F)cnc4NC4CC5(COC5)C4)CC3)C2)C1 [Compound A288]
80 to 100 | > 10 | CCOC(=O)N1CC2(CC[C@@H](N3CCN(c4cc(F)cnc4-n4cnc(C)c4)CC3)C2)C1 [Compound A290]
50 to 79.9 | > 10 | CCOC(=O)N1CC2(CC[C@@H](N3CCN(c4cc(F)cnc4-n4ccc(C)n4)CC3)C2)C1 [Compound A291]
80 to 100 | > 10 | CCOC(=O)N1CC2(CC[C@H](N3CCC(c4cc(F)cnc4-c4ccc(F)cn4)CC3)C2)C1 [Compound A293]

The next lines start with the molecule.

SMILES | Emax [1] [%] | EC50 [2] [µM]
CCOC(=O)N1CC2(CC[C@@H](N3CCN(c4cc(F)cnc4C4=CCN(C)CC4)CC3)C2)C1 [Compound A197] | 80 to 100 | > 10
CCOC(=O)N1CC2(CC[C@@H](N3CCN(c4cc(F)cnc4-c4ccn(C(F)F)n4)CC3)C2)C1 [Compound A198] | 50 to 79.9 | > 10
[2H]C([2H])([2H])n1ccc(-c2ncc(F)cc2N2CCN([C@@H]3CCC4(C3)CN(C(=O)OCC)C4)CC2)n1 [Compound A199] | 19 to 49.9 | > 10
CCOC(=O)N1CC2(CC[C@@H](N3CCN(c4cc(F)cnc4-c4ccn(C(C)(C)C)n4)CC3)C2)C1 [Compound A200] | 19 to 49.9 | > 10
CCOC(=O)N1CC2(CC[C@@H](N3CCN(c4cc(F)cnc4-c4ccc(=O)[nH]c4C)CC3)C2)C1 [Compound A201] | 80 to 100 | > 10
CCOC(=O)N1CC2(CC[C@@H](N3CCN(c4cc(F)cnc4-c4cc(C)c(=O)n(C)c4)CC3)C2)C1 [Compound A202] | 19 to 49.9 | > 10
CCOC(=O)N1CC2(CC[C@@H](N3CCN(c4cc(F)cnc4-c4cccn(C)c4=O)CC3)C2)C1 [Compound A203] | 19 to 49.9 | > 10
CCOC(=O)N1CC2(CC[C@@H](N3CCN(c4cc(Cl)cnc4-c4cnn(C)c4)CC3)C2)C1 [Compound A204] | 80 to 100 | > 10
CCOC(=O)N1CC2(CC[C@@H](N3CCN(c4cc(F)cnc4-c4cc(C)[nH]c(=O)c4)CC3)C2)C1 [Compound A205] | 80 to 100 | > 10
CCOC(=O)N1CC2(CC[C@@H](N3CCN(c4cc(Cl)cnc4-c4ccc(=O)n(C)c4)CC3)C2)C1 [Compound A207] | 80 to 100 | > 10
CCOC(=O)N1CC2(CC[C@@H](N3CCN(c4cc(Cl)cnc4-c4ccn(C)n4)CC3)C2)C1 [Compound A208] | 50 to 79.9 | > 10
CCOC(=O)N1CC2(CC[C@@H](N3CCN(c4cc(Cl)cnc4-c4ccn(C)c(=O)c4)CC3)C2)C1 [Compound A209] | 80 to 100 | > 10
CCOC(=O)N1CC2(CC[C@@H](N3CCN(c4cccnc4N4CCCCC4)CC3)C2)C1 [Compound A215] | 80 to 100 | > 10
CCOC(=O)N1CC2(CCC(N3CCN(c4cccnc4N4CCC(OC)CC4)CC3)C2)C1 (stereo not drawn) [Compound A216] | 80 to 100 | > 10
CCOC(=O)N1CC2(CCC(N3CCN(c4cccnc4N4CCC(C#N)CC4)CC3)C2)C1 (stereo not drawn) [Compound A217] | 80 to 100 | > 10
CCOC(=O)N1CC2(CC[C@@H](N3CCN(c4cc(F)cnc4-c4ccc(F)cn4)CC3)C2)C1 [Compound A218] | 80 to 100 | > 10
CCOC(=O)N1CC2(CC[C@@H](N3CCN(c4cc(Cl)cnc4-c4cnccn4)CC3)C2)C1 [Compound A221] | 80 to 100 | > 10
CCOC(=O)N1CC2(CC[C@@H](N3CCN(c4cc(F)cnc4-c4cnc(OC)cn4)CC3)C2)C1 [Compound A226] | 80 to 100 | > 10
CCOC(=O)N1CC2(CC[C@@H](N3CCN(c4cc(F)cnc4-c4ccccn4)CC3)C2)C1 [Compound A227] | 80 to 100 | > 10
CCOC(=O)N1CC2(CC[C@@H](N3CCN(c4cc(F)cnc4-c4ccc(C)cn4)CC3)C2)C1 [Compound A228] | 80 to 100 | > 10
CCOC(=O)N1CC2(CC[C@@H](N3CCN(c4cc(F)cnc4OC4CCOCC4)CC3)C2)C1 [Compound A229] | 80 to 100 | > 10
CCOC(=O)N1CC2(CC[C@@H](N3CCN(c4cc(F)cnc4-c4cn(C)nn4)CC3)C2)C1 [Compound A230] | 80 to 100 | > 10
CCOC(=O)N1CC2(CC[C@@H](N3CCN(c4cc(F)cnc4-c4cnc(C)cn4)CC3)C2)C1 [Compound A231] | 50 to 79.9 | > 10
CCOC(=O)N1CC2(CC[C@@H](N3CCN(c4cc(F)cnc4OC4CC5(COC5)C4)CC3)C2)C1 [Compound A233] | 80 to 100 | > 10
CCOC(=O)N1CC2(CC[C@@H](N3CCN(c4cc(F)cnc4-c4ccc(C#N)cn4)CC3)C2)C1 [Compound A234] | 80 to 100 | > 10
CCOC(=O)N1CC2(CC[C@@H](N3CCN(c4cc(F)cnc4-c4cnc(OC(F)F)cn4)CC3)C2)C1 [Compound A235] | 80 to 100 | > 10
CCOC(=O)N1CC2(CC[C@@H](N3CCN(c4cc(F)cnc4-c4ccc(C(F)(F)F)nn4)CC3)C2)C1 [Compound A243] | 50 to 79.9 | > 10
CCOC(=O)N1CC2(CC[C@@H](N3CCN(c4cccnc4-c4cnccn4)CC3)C2)C1 [Compound A244] | 80 to 100 | > 10
CCOC(=O)N1CC2(CC[C@@H](N3CCN(c4cc(Cl)cnc4-c4cccnn4)CC3)C2)C1 [Compound A245] | 80 to 100 | > 10
CCOC(=O)N1CC2(CC[C@@H](N3CCN(c4cc(F)cnc4-n4cc(C)nn4)CC3)C2)C1 [Compound A246] | 80 to 100 | > 10

From patent US20260098026A1, “M4 ACTIVATORS/MODULATORS AND USES THEREOF” (Cerevel Therapeutics, LLC, priority 2022, published 2026)
